Measured values published in article PMC4279406, “Simultaneous targeting of PI3Kδ and a PI3Kδ-dependent MEK1/2-Erk1/2 pathway for therapy in pediatric B-cell acute lymphoblastic leukemia” (Oncotarget, 2014).
Like-named read-outs stand apart in the source and are kept apart here.

Experiments:
[1] = tested on: Rh30-Myr-p110β cells; test: Akt phosphorylation in isogenic Rh30-Myr-p110 cells (Western blot); assay type: cell-based; details: Homo sapiens, serum-free 12 h, compound 1 h, band intensity, mean of three experiments
Excerpt: To assess the selectivity of X-370 in the context of an isogenic cellular background, we generated a panel of Rh30 human rhabdomyosarcoma cell lines each of which stably expresses a single myristoylated (Myr)-epitope tagged p110 human class I PI3K catalytic subunit, termed as Rh30-Myr-p110α, Rh30-Myr-p110β, Rh30-Myr-p110γ or Rh30-Myr-p110δ. In these cells, endogenous PI3K is not activated under serum-free culture conditions, whereas the ectopically expressed p110 isoforms are membrane-anchored and constitutively active due to myristoylation at N-terminal. Utilizing this cell panel, isoform-specific PI3K activity can be determined for any given inhibitor[25]. These cells were treated with X-370 and phosphorylated Akt was detected as the readout of PI3K activity. X-370 inhibited phosphorylation of Akt at both Thr308 and Ser473 in a dose-dependent manner in four tested cell lines (Figure 2A). […] Similar property was also observed in CAL-101 (Figure S2).
Cell lysates were probed with indicated antibodies. The IC50 values were calculated based on relative band intensity measured with ImageQuant™ TL (GE Healthcare Life Sciences, Piscataway, NJ) (B). Data shown are mean values from three independent experiments. (C, D, E, F) X-370 blocked stimuli-triggered PI3Kδ activation. MEF cells and THP-1 were starved in serum-free medium for 12 h or 4 h respectively and X-370 were added for an additional 1 h treatment following stimulation of IGF-1 at 100 ng/ml for MEF cells (C), LPA at 10 μM for MEF cells (D), MCP-1 at 100ng/ml for THP-1 (E) and M-CSF at 50 ng/ml for THP-1 (F). Similar results were derived from 3 independent experiments. TEXT PRINTED IN THE PICTURE: (B) X-370: IC50 (μM) in Rh30-Myr-p110s, Akt pT308, PI3Kα: 0.68; IC50 (μM) in Rh30-Myr-p110s, Akt pT308, PI3Kβ: 0.4; IC50 (μM) in Rh30-Myr-p110s, Akt pT308, PI3Kγ: 0.46; IC50 (μM) in Rh30-Myr-p110s, Akt pT308, PI3Kδ: 0.032; IC50 (μM) in Rh30-Myr-p110s, Akt pS473, PI3Kα: 0.53; IC50 (μM) in Rh30-Myr-p110s, Akt pS473, PI3Kβ: 0.29; IC50 (μM) in Rh30-Myr-p110s, Akt pS473, PI3Kγ: 0.23; IC50 (μM) in Rh30-Myr-p110s, Akt pS473, PI3Kδ: 0.02 DOUBTS OF THE COPYIST ABOUT THIS PICTURE: Panel B prints no substance label in the table itself; the label X-370 is taken from the other panels of the same picture, where it is the only substance printed. […]
Cells were treated as indicated conditions and then subjected to lysate to perform standard Western blot as described previously1. Briefly, whole-cell lysates and SDS-loading buffer diluted cell fractions were analyzed on SDS-PAGE gels. Transfer to nitrocellulose membranes, nonfat milk blocking, probing with indicated primary antibodies and the corresponding HRP-conjugated second antibodies.
Chemiluminescence were performed and captured using ImageQuant LAS 4000 (GE healthcare Life Sciences, Piscataway, NJ, USA) and band intensity was measure both with ImageQuant™ TL (GE Healthcare Life Sciences) 2. […]
(also on this page, place not known: PI3Kδ -dependent MEK1/2 - B -cell previously 1. whole -cell SDS -loading SDS -PAGE HRP -conjugated (G E A B Val828 Trp760 Thr750 Met752 Tyr813 affinity pocket specificity pocket hinge Glu826 CAL-101 X-370) […]
(1 picture or pasted object on this page, not shown here)

[2] = biological target: T1, PI3Kα (Homo sapiens, UniProt P42336); test: Kinase Profiler lipid kinase IC50; assay type: biochemical; details: ATP at Km of the isoform; 10-point half-log dilution from 1000 nM
T1 construct: purchased Millipore (Kinase Profiler Services, United Kingdom)
T1 sequence (P42336 whole entry, canonical isoform): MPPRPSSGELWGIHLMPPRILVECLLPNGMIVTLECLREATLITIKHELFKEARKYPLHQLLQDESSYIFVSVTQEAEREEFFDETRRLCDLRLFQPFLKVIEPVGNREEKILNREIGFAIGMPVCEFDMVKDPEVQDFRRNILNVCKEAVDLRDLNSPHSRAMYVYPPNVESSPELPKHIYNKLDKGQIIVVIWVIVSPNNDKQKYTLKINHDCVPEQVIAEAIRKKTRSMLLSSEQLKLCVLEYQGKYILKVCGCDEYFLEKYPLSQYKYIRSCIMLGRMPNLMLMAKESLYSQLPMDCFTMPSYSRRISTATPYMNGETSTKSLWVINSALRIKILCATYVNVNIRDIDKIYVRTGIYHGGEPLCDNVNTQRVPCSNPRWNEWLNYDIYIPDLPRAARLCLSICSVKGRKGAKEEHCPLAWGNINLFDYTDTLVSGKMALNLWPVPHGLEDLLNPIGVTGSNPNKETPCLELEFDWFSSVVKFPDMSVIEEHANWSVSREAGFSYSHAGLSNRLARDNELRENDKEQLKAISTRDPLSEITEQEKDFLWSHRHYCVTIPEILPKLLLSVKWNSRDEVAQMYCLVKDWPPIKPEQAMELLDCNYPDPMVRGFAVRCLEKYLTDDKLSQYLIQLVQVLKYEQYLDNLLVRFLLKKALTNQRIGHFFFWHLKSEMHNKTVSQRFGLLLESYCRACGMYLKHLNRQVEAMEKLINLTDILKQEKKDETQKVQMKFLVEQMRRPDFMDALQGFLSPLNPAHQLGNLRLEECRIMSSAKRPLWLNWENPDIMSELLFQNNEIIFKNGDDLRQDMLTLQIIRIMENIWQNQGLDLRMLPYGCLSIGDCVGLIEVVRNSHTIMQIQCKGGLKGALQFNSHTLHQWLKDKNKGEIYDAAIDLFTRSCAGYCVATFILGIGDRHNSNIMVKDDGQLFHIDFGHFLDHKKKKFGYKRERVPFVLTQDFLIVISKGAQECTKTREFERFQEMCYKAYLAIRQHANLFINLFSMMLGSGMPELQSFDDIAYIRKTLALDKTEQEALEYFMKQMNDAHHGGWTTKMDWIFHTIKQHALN
T1 sequence (P27986 whole entry partner, canonical isoform): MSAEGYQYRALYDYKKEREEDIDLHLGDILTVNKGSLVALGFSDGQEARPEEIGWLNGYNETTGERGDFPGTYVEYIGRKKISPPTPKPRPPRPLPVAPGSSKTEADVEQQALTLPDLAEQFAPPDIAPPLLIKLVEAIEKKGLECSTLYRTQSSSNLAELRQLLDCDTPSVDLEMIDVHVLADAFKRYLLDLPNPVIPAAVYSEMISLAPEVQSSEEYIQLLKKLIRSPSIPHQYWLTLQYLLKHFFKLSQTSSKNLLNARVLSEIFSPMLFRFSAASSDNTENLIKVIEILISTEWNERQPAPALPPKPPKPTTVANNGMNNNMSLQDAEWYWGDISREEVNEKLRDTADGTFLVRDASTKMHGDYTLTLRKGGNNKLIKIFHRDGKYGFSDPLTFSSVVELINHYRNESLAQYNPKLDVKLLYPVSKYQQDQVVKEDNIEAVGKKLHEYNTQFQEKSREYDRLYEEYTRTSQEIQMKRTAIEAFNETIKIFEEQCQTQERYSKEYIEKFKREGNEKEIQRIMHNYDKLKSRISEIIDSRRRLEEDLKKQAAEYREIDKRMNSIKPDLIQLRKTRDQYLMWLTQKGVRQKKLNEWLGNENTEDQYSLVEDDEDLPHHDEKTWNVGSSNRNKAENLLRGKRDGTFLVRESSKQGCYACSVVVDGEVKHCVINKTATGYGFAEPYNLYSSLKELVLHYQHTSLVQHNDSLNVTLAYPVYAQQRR
Procedure: (§1) Figure 1 Structure of X-370 and its inhibitory activity against lipid kinases (A) Chemical structure of X-370. (B) X-370 docked to the crystal structure of PI3Kδ. The model was generated based on the co-crystal structure of PI3Kδ and ZSTK474 (PDB ID: 2WXL). (C) IC50 of X-370 against PI3Kδ increased along with ATP concentration. […] Data was obtained from Kinase Profiler Services (Millipore, United Kingdom). Briefly, X-370 was solved in DMSO at a concentration of 10 mM, 10-point kinase inhibitory activity was measured over concentrations in a half-log dilution series started at 1000 nM with ATP at a concentration consistent with Km of each isoform of class I PI3K and IC50s were calculated. Relative kinase activity in the presence of 10 μM X-370 compared to DMSO control was measured for the rest of lipid kinases. TEXT PRINTED IN THE PICTURE: (D) X-370: IC50 (nM): 7 (Isoform: PI3Kδ); IC50 (nM): 433 (Isoform: PI3Kα); IC50 (nM): >1,000 (Isoform: PI3Kγ); IC50 (nM): >1,000 (Isoform: PI3Kβ); Relative Activity (%) X-370 (10 μM): 55 (Lipid Kinases: PI3KC2α); Relative Activity (%) X-370 (10 μM): 63 (Lipid Kinases: PI3KC2γ); Relative Activity (%) X-370 (10 μM): 105 (Lipid Kinases: PIP4K2α); Relative Activity (%) X-370 (10 μM): 100 (Lipid Kinases: PIP5K1α); Relative Activity (%) X-370 (10 μM): 103 (Lipid Kinases: PIP5K1γ) DOUBTS OF THE COPYIST ABOUT THIS PICTURE: Panel D, left table (Isoform / IC50): no substance label is printed in this table; assigned to X-370, the only label printed in the panel (head of the right table)
(§2) In vitro kinase profile assays were analyzed by the Kinase Profiler Service (Millipore, United Kingdom) following its guidelines. A GST-tagged human p110δ and regulatory full-length p85 were co-expressed in insect cell Sf9. Recombinant protein was extracted by affinity purification. The PI3K kinase activity was determined in the increasing concentration of ATP and X-370 with PI3-Kinase HTRF™ Assay kit (Millipore) as described previously.

[3] = biological target: T2, PI3Kβ (Homo sapiens, UniProt P42338); test: Kinase Profiler lipid kinase IC50; assay type: biochemical; details: ATP at Km of the isoform; 10-point half-log dilution from 1000 nM
T2 construct: purchased Millipore (Kinase Profiler Services, United Kingdom)
T2 sequence (P42338 whole entry, canonical isoform): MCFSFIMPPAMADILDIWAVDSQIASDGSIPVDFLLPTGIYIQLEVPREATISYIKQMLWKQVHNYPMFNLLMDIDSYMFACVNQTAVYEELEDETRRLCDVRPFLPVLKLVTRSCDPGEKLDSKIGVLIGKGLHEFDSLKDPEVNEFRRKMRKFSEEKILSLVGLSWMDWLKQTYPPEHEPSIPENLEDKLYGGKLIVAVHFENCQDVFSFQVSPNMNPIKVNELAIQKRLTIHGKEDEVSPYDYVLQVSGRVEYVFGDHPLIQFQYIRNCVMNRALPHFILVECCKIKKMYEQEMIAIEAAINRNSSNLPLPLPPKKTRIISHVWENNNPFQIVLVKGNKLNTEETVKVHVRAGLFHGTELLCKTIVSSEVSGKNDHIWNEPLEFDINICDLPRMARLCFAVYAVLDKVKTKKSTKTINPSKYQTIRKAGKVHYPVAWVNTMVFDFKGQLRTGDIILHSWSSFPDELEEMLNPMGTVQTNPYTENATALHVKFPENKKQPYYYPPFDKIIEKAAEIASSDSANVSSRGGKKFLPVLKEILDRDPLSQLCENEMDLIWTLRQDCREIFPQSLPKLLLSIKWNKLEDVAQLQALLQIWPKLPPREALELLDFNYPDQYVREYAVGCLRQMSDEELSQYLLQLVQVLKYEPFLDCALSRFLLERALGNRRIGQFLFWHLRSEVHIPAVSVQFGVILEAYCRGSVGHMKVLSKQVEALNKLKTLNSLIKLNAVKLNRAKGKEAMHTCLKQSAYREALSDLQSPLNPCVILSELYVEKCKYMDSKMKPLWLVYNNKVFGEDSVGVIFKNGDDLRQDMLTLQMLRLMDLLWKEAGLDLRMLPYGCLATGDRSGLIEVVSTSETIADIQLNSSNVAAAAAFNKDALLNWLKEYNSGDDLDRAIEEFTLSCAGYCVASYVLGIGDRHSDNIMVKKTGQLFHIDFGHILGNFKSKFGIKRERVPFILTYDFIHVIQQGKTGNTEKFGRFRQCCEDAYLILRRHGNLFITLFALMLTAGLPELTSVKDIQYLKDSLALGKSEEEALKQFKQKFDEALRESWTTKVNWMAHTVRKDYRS
T2 sequence (P27986 whole entry partner, canonical isoform): as the sequence (P27986 whole entry partner, canonical isoform) above
Procedure: as §1, §2

[4] = biological target: T3, PI3Kγ (Homo sapiens, UniProt P48736); test: Kinase Profiler lipid kinase IC50; assay type: biochemical; details: ATP at Km of the isoform; 10-point half-log dilution from 1000 nM
T3 construct: purchased Millipore (Kinase Profiler Services, United Kingdom)
T3 sequence (P48736 whole entry, canonical isoform): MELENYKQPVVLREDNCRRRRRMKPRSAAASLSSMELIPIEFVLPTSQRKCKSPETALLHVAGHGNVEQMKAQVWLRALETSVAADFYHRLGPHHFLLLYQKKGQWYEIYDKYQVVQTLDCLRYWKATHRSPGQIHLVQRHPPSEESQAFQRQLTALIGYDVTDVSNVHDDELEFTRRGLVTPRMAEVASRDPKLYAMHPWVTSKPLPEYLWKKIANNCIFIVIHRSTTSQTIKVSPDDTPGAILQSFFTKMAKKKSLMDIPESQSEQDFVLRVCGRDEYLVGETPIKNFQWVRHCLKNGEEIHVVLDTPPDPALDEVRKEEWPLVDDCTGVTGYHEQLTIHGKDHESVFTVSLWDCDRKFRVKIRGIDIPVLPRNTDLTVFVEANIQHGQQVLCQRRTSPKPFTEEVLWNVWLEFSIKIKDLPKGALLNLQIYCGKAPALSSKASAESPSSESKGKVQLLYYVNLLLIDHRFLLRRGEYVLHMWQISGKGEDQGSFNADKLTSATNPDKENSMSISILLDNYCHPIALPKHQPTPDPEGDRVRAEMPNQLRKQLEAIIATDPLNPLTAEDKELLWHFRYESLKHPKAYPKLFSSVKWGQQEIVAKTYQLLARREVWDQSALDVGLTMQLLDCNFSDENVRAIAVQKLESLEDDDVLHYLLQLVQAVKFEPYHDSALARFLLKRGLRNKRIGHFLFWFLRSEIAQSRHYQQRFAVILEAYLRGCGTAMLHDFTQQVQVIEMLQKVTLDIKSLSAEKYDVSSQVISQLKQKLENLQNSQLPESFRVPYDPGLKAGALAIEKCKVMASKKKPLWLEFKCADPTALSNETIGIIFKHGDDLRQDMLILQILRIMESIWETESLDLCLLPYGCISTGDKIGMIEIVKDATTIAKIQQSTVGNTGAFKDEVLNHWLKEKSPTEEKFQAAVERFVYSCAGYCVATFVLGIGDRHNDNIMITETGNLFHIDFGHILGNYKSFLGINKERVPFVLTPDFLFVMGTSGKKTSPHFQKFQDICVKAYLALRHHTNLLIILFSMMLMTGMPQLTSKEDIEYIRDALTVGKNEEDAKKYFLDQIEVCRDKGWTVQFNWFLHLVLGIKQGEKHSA
Procedure: as §1, §2

- IC50 ([1]; read-out: IC50 (μM) in Rh30-Myr-p110s, Akt pS473, PI3Kβ): 0.29 µM
- IC50 ([1]; read-out: IC50 (μM) in Rh30-Myr-p110s, Akt pT308, PI3Kβ): 0.4 µM
- IC50 [2]: 0.433 µM
- IC50 [3]: > 1 µM
- IC50 [4]: > 1 µM
Structure (SMILES): O=C(N1CCCC1)N1CCC(n2cnc3c(-n4c(C(F)F)nc5ccccc54)nc(N4CCOCC4)nc32)CC1 [X-370]
